For one data set, the system named is human liver microsomes. Kind of data set: Metabolization on human liver microsomes. Particulars: 10 μM, 1 mg/ml protein, 120 min, n=3. The format is in vitro ADME. The method, then: (§1) I) Human liver microsomes: Pantoprazole racemate and the (+)- and (−)-enantiomers (10 μM each) were incubated with human liver microsomes (source: TEBU, incubation in 1 mg/ml protein, 100 mM Tris-HCl, pH 7.4, 1 mM NADPH2). Reaction was terminated after 30 and 120 minutes by liquid nitrogen, the parent compound was detected by HPLC (10 mM KH2PO4, pH 7.4, acetonitril gradient 20-48%).

The next data set deals with T1, Recombinant CYP 2C19 (Homo sapiens, UniProt P33261).
T1 construct: purchased GENTEST
Kind of data set: Metabolization on recombinant CYP 2C19. The data set is classed as in vitro ADME. Particulars: 10 μM, 0.1 mg/ml protein, 120 min, n=3. The method, then: as §1
II) Recombinant CYP 2C19 (source: GENTEST); incubation method as described under I) (in presence of 0.1 mg/ml protein).

Data set [1] is described as follows: Hygroscopicity / water content of the salts. The settings on record: depending on drying conditions and atmospheric humidity. The format is physicochemical. The method, then:
Drying was carried out in a vacuum drying cabinet at <50 mbar and 40-45° C. [It is also possible to dispense with drying and to use the moist product (having an MIBK content of 10-20%) directly for step B].

The nature of data set [2]: Storage stability of the solid salts at elevated temperature.
Data set [3] relates to pentagastrin-stimulated acid output in the Ghosh-Schild rat. Kind of data set: Inhibition of acid output in the Ghosh-Schild rat after i.v. administration. The data set is classed as in vivo. Particulars: 1 μmol/kg i.v. 3 hours prior to pentagastrin stimulation; 3 to 7.5 hours after administration; FIG. 3; listed as (−)-enantiomer, Dihydrate. The method, then: Female Sprague Dawley CD rats (190-210 g body weight) were anaesthetised with 1.5 g/kg i.m. of urethane, in 5 ml/kg physiologic saline. The trachea was intubated and both, the left external jugular vein (for drug administration) and left femoral vein (for pentagastrin infusion) were cannulated. An esophagus/cardia-cannula (diameter: 1.7 mm) was inserted transorally, and a pylorus-cannula (diameter: 2.6 mm) was inserted through the duodenum, and both were secured with a ligature. The pyloric catheter was led through the right abdominal wall. Body temperature was maintained at 37.0±0.2° C. by means of infrared radiation and electric cushion (automatic infinite control via rectal temperature probe). After thorough flushing (about 50-100 ml), the stomach was continuously perfused with 0.5 ml/min of physiologic saline (37° C.). In the effluate, collected at 15 min intervals, the pH as well as the acid output were determined, the latter by titration to pH 7 with freshly prepared 0.01 N NaOH.
Gastric secretion was stimulated by a continuous intravenous infusion (left femoral vein) of 1 μg/kg×min pentagastrin (in 1.6 ml/h physiologic saline) starting after determination of two basal values of acid secretion, i.e., 30 min after commencement of stomach perfusion. See horizontal bars in FIGS. 1 and 2 for pentagastrin-infusion. […]

Data set [4] can be described thus: Wettability, dissolution rate and solubility compared to racemic pantoprazole magnesium dihydrate.

Entries after “also recorded” stand apart in the source; their conditions may differ.

T1 sequence (P33261 whole entry): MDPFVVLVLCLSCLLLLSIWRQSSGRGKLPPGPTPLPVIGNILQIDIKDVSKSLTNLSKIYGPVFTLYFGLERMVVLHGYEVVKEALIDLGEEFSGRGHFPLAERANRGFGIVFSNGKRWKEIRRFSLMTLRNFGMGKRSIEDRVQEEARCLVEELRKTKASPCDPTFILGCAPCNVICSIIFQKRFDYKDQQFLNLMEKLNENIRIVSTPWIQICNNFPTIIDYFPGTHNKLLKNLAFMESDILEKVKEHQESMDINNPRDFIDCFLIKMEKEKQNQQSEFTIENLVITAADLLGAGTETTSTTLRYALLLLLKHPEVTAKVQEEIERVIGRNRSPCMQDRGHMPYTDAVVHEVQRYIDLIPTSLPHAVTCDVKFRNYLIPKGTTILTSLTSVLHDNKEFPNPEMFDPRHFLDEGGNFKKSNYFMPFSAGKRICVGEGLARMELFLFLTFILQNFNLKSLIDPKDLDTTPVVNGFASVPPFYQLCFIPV

In the case of `COc1ccnc(C[S+]([O-])c2nc3ccc(OC(F)F)cc3[nH]2)c1OC` (racemic) [racemate, 5-difluoromethoxy-2-[(3,4-dimethoxy-2-pyridinyl)methylsulphinyl]-1H-benzimidazole], the “metabolized on human microsomes (mean)” value in the data set with human liver microsomes came out at 44%. Further, the “metabolized on CYP2C19 (mean)” value at Recombinant CYP 2C19 worked out at 67%.
The matching figures for `COc1ccnc(C[S+]([O-])c2nc3ccc(OC(F)F)cc3[nH]2)c1OC` (single isomer, unassigned; (+)) [(+) enantiomer]: 44% and 64%.
The matching figures for `COc1ccnc(C[S+]([O-])c2nc3cc(OC(F)F)ccc3[nH]2)c1OC` (single isomer, unassigned; (-)) [(−)-Pantoprazole, (−)-[5-(difluoromethoxy)]-2-[(3,4-dimethoxy-2-pyridinyl)methylsulphinyl]-1H-benzimidazole]: 26% and 54%.
On to `COc1ccnc(C[S+]([O-])c2nc3cc(OC(F)F)ccc3[n-]2)c1OC.COc1ccnc(C[S+]([O-])c2nc3cc(OC(F)F)ccc3[n-]2)c1OC.[Ca+2]` (single isomer, unassigned; (-)) [(−)-pantoprazole calcium], for which, in data set [1], the water content was 4-8%.
In the case of `COc1ccnc(C[S+]([O-])c2nc3cc(OC(F)F)ccc3[n-]2)c1OC.[Na+]` (single isomer, unassigned; (-)) [(−)-pantoprazole sodium], the results for the “hygroscopicity (absorption of water)” value in data set [1] and in data set [1] (listed as (−)-Pantoprazole-Na) were “absorbs water” and “hygroscopic”, respectively. Further, the “purity (according to HPLC) after storage” value in data set [2] (storage at 60-70° C., atmospheric conditions, starting purity 99.5%) was 96-97%.
Consider “Magnesium (−)-bis{[5-(difluoromethoxy)]-2-[(3,4-dimethoxy-2-pyridinyl)methylsulphinyl]-1H-benzimidazolide} Dihydrate [(−)-pantoprazole magnesium dihydrate]”, for which, in data set [1], the “hygroscopicity (absorption of water)” value was “non-hygroscopic” and the water content result is given as “about 4.4%”. Further, the “inhibition of acid secretion, Experiment 2, compared to the (+)-enantiomer” value in data set [3] was “significantly superior; also recorded: significantly more effective”. Also, the “stability (discolouration, decomposition) on storage” value in data set [2] (70° C., one week) is on record as “completely stable”. Besides, in data set [2] (storage under atmospheric conditions, 60-70° C.), the “sum of by-products on storage” value is “remains virtually constant”. Besides, the “wettability compared to racemic pantoprazole magnesium dihydrate” value in data set [4] is on record as “better wettability”. Further, the “dissolution rate compared to racemic pantoprazole magnesium dihydrate” value in data set [4] (pH 7-7.4) is “considerably higher dissolution rate”. Also, in data set [4] (pH 10), the “solubility relative to racemic pantoprazole magnesium dihydrate” value is “about tenfold”.

The record behind these values is patent US7629361B2, “Salt of (S)-pantoprazole and its hydrates” (NYCOMED GmbH, priority 2002, dated 2009).
